# Target: T1, full-length beta-Catenin (Uniprot ID P35222) (Homo sapiens, UniProt P35222)
# T1 construct: 10 nM full-length beta-Catenin (Uniprot ID P35222)
# T1 sequence (P35222 1-781): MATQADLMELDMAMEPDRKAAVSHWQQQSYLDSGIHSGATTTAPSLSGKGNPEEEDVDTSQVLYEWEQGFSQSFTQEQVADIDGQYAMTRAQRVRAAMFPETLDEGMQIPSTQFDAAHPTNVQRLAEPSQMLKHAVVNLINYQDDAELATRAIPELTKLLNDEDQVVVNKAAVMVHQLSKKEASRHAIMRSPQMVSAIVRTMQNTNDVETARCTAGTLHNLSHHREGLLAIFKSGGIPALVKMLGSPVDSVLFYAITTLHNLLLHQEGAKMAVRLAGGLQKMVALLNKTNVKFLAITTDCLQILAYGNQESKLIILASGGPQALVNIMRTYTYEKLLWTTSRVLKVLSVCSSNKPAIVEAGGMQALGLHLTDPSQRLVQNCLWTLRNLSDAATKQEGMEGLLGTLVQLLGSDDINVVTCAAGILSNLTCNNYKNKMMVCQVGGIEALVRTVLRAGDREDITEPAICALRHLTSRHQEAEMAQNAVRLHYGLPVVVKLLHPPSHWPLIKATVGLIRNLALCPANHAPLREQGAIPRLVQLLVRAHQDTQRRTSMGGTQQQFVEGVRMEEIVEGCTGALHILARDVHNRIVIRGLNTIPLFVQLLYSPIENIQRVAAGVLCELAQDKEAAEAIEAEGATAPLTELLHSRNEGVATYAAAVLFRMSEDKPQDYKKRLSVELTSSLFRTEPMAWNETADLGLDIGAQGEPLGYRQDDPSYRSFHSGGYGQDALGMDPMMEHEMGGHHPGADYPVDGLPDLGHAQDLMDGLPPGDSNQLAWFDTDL
# Assay: Fluorescence polarization IC50 (beta-catenin / 5FAM-TCF4 10-53 competition)
# Format: binding
# Conditions: beta-Catenin FP IC50 (nM), fluorescence polarization
row,SMILES,IC50
1,CC(=O)N1CCC[C@]12CC=CCCCC1(CCCC=CCCCOC(=O)N3CC[C@@](C(=O)N[C@@H](Cc4ccsc4)C(=O)N[C@@H](Cc4csc5ccccc45)C(=O)N[C@@H](CC(N)=O)C(=O)N[C@@H](C)C(=O)N[C@@H](C)C(=O)N[C@@H](C)C(=O)N[C@@H](C)C(=O)N[C@@H](C)C(=O)N[C@@H](C)C(=O)N[C@@H](C)C(=O)N[C@@H](C)C(=O)N[C@@H](C)C(N)=O)(C3)NC(=O)[C@H](CC(C)C)NC(=O)[C@H](Cc3ccccc3)NC(=O)[C@H](C)NC(=O)[C@H](C)NC(=O)[C@H](Cc3cccc(C(=O)O)c3)NC(=O)[C@H](CC(=O)O)NC1=O)NC(=O)[C@H](CC(C)(C)C)NC(=O)[C@H](CC(=O)O)NC2=O (stereo partly drawn) [I-2270],40 nM

# Same assay, conditions: fluorescence polarization, beta-catenin; read-out: FP EC50
row,SMILES,IC50
1,"CC(=O)N1CCC[C@]12CC=CCCCC1(CCCC=CCCCOC(=O)N3CC[C@@](C(=O)N[C@@H](Cc4ccccc4Cl)C(=O)N[C@@H](Cc4csc5ccccc45)C(=O)N[C@@H](CC(C)C)C(N)=O)(C3)NC(=O)[C@H](CC(C)C)NC(=O)[C@H](Cc3ccccc3)NC(=O)[C@H](C)NC(=O)[C@H](C)NC(=O)[C@H](CC(=O)O)NC(=O)[C@H](CC(=O)O)NC1=O)NC(=O)[C@H](CC(C)(C)C)NC(=O)[C@H](CC(=O)O)NC2=O (stereo partly drawn) [I-1416, Ac-PL3-Asp-Npg-B5-Asp-Asp-Ala-Ala-Phe-Leu-PyrS2-2C1F-BztA-Leu-NH2]",57 nM

# Same assay, conditions: fluorescence polarization; read-out: beta-Catenin FP IC50
row,SMILES,IC50
1,"CC(=O)N1CCC[C@]12CC=CCCCC1(CCCC=CCCCOC(=O)N3CCC(C(=O)N[C@@H](Cc4ccccc4C(F)(F)F)C(=O)N[C@@H](Cc4csc5ccccc45)C(=O)N[C@@H](C)C(N)=O)(CC3)NC(=O)[C@H](CC(C)C)NC(=O)[C@H](Cc3ccccc3)NC(=O)[C@H](C)NC(=O)[C@H](CCC(N)=O)NC(=O)[C@H](Cc3cccc(C(=O)O)c3)NC(=O)[C@H](CC(=O)O)NC1=O)NC(=O)[C@H](CC(C)(C)C)NC(=O)[C@H](CC(=O)O)NC2=O (stereo partly drawn) [I-2585, Ac-PL3-Asp-Npg-B5-Asp-3COOHF-Gln-Ala-Phe-Leu-SPip2-2F3MeF-BztA-Ala-NH2]",452 nM
2,"CCC(C)N(CC(=O)O)C[C@@H]1NC(=O)[C@H](CC(=O)O)NC(=O)C2(CCCC=CCCCOC(=O)N3CC[C@@](C(=O)N[C@@H](Cc4ccccc4Cl)C(=O)N[C@@H](Cc4csc5ccccc45)C(=O)N[C@@H](CCC(N)=O)C(N)=O)(C3)NC(=O)[C@H](CC(N)=O)NC(=O)[C@H](Cc3ccccc3)NC(=O)[C@H](C)NC(=O)[C@H](C)NC1=O)CCCC=CC[C@]1(CCCN1C(C)=O)C(=O)N[C@@H](CC(=O)O)C(=O)N[C@@H](CC(C)(C)C)C(=O)N2 (stereo partly drawn) [I-1623, Ac-PL3-Asp-Npg-B5-Asp-[sBu]GA-Ala-Ala-Phe-Asn-PyrS2-2C1F-BztA-Gln-NH2]",30 nM
3,"CC(=O)N1CCC[C@]12CC=CCCCC1(CCCC=CCCCOC(=O)N3CC[C@@](C(=O)N[C@@H](Cc4ccsc4)C(=O)N[C@@H](Cc4csc5ccccc45)C(=O)N[C@@H](CCC(N)=O)C(N)=O)(C3)NC(=O)[C@H](CC(C)C)NC(=O)[C@H](Cc3ccccc3)NC(=O)[C@H](C)NC(=O)[C@H](C)NC(=O)[C@H](CC(=O)O)NC(=O)[C@H](CC(=O)O)NC1=O)NC(=O)[C@H](CC(C)(C)C)NC(=O)[C@H](CCO)NC2=O (stereo partly drawn) [I-1229, Ac-PL3-Hse-Npg-B5-Asp-Asp-Ala-Ala-Phe-Leu-PyrS2-3Thi-BztA-Gln-NH2]",134 nM
4,"CNC(=O)C[C@@H]1NC(=O)C2(CCCC=CCCCCCC[C@@](C)(C(=O)N[C@@H](Cc3ccccc3)C(=O)N[C@@H](Cc3csc4ccccc34)C(=O)N[C@@H](CCC(N)=O)C(N)=O)NC(=O)[C@H](C(C)C)NC(=O)[C@H](Cc3ccccc3)NC(=O)[C@H](C)NC(=O)[C@H](C)NC(=O)[C@H](CC(=O)O)NC1=O)CCCC=CC[C@]1(CCCN1C(C)=O)C(=O)N[C@@H](CC(=O)O)C(=O)N[C@@H](C)C(=O)N2 (stereo partly drawn) [I-540, Ac-PL3-Asp-Ala-B5-[NHMe]AsnR-Asp-Ala-Ala-Phe-Val-S8-Phe-BztA-Gln-NH2]",5000 nM
5,"CC(=O)N1CCC[C@]12CC=CCCCC1(CCCC=CCCCOC(=O)N3CC[C@@](C(=O)N[C@@H](Cc4ccccc4Cl)C(=O)N[C@@H](Cc4csc5ccccc45)C(=O)N[C@@H](CCC(N)=O)C(N)=O)(C3)NC(=O)[C@H](CC(N)=O)NC(=O)[C@H](Cc3ccccc3)NC(=O)[C@H](C)NC(=O)[C@H](C)NC(=O)[C@H]([C@@H](C)O)NC(=O)[C@H](CC(N)=O)NC1=O)NC(=O)[C@H](CC(C)(C)C)NC(=O)[C@H](CC(=O)O)NC2=O (stereo partly drawn) [I-1999, Ac-PL3-Asp-Npg-B5-Asn-Thr-Ala-Ala-Phe-Asn-PyrS2-2C1F-BztA-Gln-NH2]",4940 nM
6,"CC(=O)N1CCC[C@]12CC=CCCCC1(CCCC=CCCCOC(=O)N3CC[C@@](C(=O)N[C@@H](Cc4ccsc4)C(=O)N[C@@H](Cc4csc5ccccc45)C(=O)N[C@@H](CCC(N)=O)C(N)=O)(C3)NC(=O)[C@H](CC(C)C)NC(=O)[C@H](Cc3ccccc3)NC(=O)[C@H](CC(=O)N3CCN(C)CC3)NC(=O)[C@H](C)NC(=O)[C@H](CC(=O)O)NC(=O)[C@H](CC(=O)O)NC1=O)NC(=O)[C@H](CC(C)(C)C)NC(=O)[C@H](CC(=O)O)NC2=O (stereo partly drawn) [I-1508, Ac-PL3-Asp-Npg-B5-Asp-Asp-Ala-MePpzAsn-Phe-Leu-PyrS2-3Thi-BztA-Gln-NH2]",87 nM
7,"CC(=O)N1CCC[C@]12CC=CCCCC1(CCCC=CCCCOC(=O)N3CC[C@@](C(=O)N[C@@H](Cc4ccccc4Cl)C(=O)N[C@@H](Cc4csc5ccccc45)C(=O)N[C@@H](CC(C)C)C(N)=O)(C3)NC(=O)[C@H](CC(C)C)NC(=O)[C@H](Cc3ccccc3)NC(=O)[C@H](C)NC(=O)[C@H](C)NC(=O)[C@H](CC(=O)O)NC(=O)[C@H](CC(=O)O)NC1=O)NC(=O)[C@H](CC(C)(C)C)NC(=O)[C@H](CC(=O)O)NC2=O (stereo partly drawn) [I-1416, Ac-PL3-Asp-Npg-B5-Asp-Asp-Ala-Ala-Phe-Leu-PyrS2-2C1F-BztA-Leu-NH2]",57 nM
8,"CC(=O)N1CCC[C@]12CC=CCCCC1(CCCC=CCCCOC(=O)N3CC[C@@](C(=O)N[C@@H](Cc4ccsc4)C(=O)N[C@@H](Cc4csc5ccccc45)C(=O)N[C@@H](C)C(N)=O)(C3)NC(=O)[C@H](CC(C)C)NC(=O)[C@H](Cc3ccccc3)NC(=O)[C@H](C)NC(=O)C(C)(C)NC(=O)[C@H](Cc3cc(C(=O)O)cc(C(F)(F)F)c3)NC(=O)[C@H](CC(=O)O)NC1=O)NC(=O)[C@H](CC(C)(C)C)NC(=O)[C@H](CC(=O)O)NC2=O (stereo partly drawn) [I-2212, Ac-PL3-Asp-Npg-B5-Asp-5F3Me3COOHF-Aib-Ala-Phe-Leu-PyrS2-3Thi-BztA-Ala-NH2]",60 nM
9,"CC(=O)N1CCC[C@]12CC=CCCCC1(CCCC=CCCCOC(=O)N3CC[C@@](C(=O)N[C@@H](Cc4ccsc4)C(=O)N[C@@H](Cc4csc5ccccc45)C(=O)N[C@@H](CCC(N)=O)C(N)=O)(C3)NC(=O)[C@H](CC(N)=O)NC(=O)[C@H](Cc3ccccc3)NC(=O)[C@H](C)NC(=O)[C@H](C)NC(=O)[C@H](CC(C)C)NC(=O)[C@H](CC(N)=O)NC1=O)NC(=O)[C@H](CC(C)(C)C)NC(=O)[C@H](CC(=O)O)NC2=O (stereo partly drawn) [I-1570, Ac-PL3-Asp-Npg-B5-Asn-Leu-Ala-Ala-Phe-Asn-PyrS2-3Thi-BztA-Gln-NH2]",1340 nM
10,"CC(=O)N1CCC[C@]12CC=CCCCC1(CCCC=CCOC(=O)N3CC[C@@](C(=O)N[C@@H](Cc4ccsc4)C(=O)N[C@@H](Cc4csc5ccccc45)C(=O)N[C@@H](CCC(N)=O)C(N)=O)(C3)NC(=O)[C@H](CC(N)=O)NC(=O)[C@H](Cc3ccccc3)NC(=O)[C@H](C)NC(=O)[C@H](C)NC(=O)[C@H](CC(=O)O)NC(=O)[C@H](CC(=O)O)NC1=O)NC(=O)[C@H](CC(C)(C)C)NC(=O)[C@H](CC(=O)O)NC2=O (stereo partly drawn) [I-1817, Ac-PL3-Asp-Npg-B5-Asp-Asp-Ala-Ala-Phe-Asn-PyrS-3Thi-BztA-Gln-NH2]",182 nM
11,"CC(=O)N1CCC[C@]12CC=CCCCC1(CCCC=CCCCOC(=O)N3CC[C@@](C(=O)N[C@@H](Cc4ccsc4)C(=O)N[C@@H](Cc4csc5ccccc45)C(=O)N[C@@H](CCC(N)=O)C(N)=O)(C3)NC(=O)[C@H](CC(N)=O)NC(=O)[C@H](Cc3ccccc3)NC(=O)[C@H](C)NC(=O)[C@H](C)NC(=O)[C@H](Cc3ccc(O)cc3)NC(=O)[C@H](CC(N)=O)NC1=O)NC(=O)[C@H](CC(C)(C)C)NC(=O)[C@H](CC(=O)O)NC2=O (stereo partly drawn) [I-1568, Ac-PL3-Asp-Npg-B5-Asn-Tyr-Ala-Ala-Phe-Asn-PyrS2-3Thi-BztA-Gln-NH2]",7180 nM
12,"CC(=O)N1CCC[C@]12CC=CCCCC1(CCCC=CCCCOC(=O)N3CC[C@@](C(=O)N[C@@H](Cc4ccsc4)C(=O)N[C@@H](Cc4csc5ccccc45)C(=O)N[C@@H](CCC(N)=O)C(N)=O)(C3)NC(=O)[C@H](CC(C)C)NC(=O)[C@H](Cc3ccccc3)NC(=O)[C@H](CCCCNC(=O)CC[C@@H](C)[C@H]3CC[C@H]4[C@@H]5CC[C@@H]6C[C@H](O)CC[C@]6(C)[C@H]5CC[C@]34C)NC(=O)[C@H](C)NC(=O)[C@H](CC(=O)O)NC(=O)[C@H](CC(=O)O)NC1=O)NC(=O)[C@H](CC(C)(C)C)NC(=O)[C@H](CC(=O)O)NC2=O (stereo partly drawn) [I-1473, Ac-PL3-Asp-Npg-B5-Asp-Asp-Ala-[lithocholate]-Lys-Phe-Leu-PyrS2-3Thi-BztA-Gln-NH2]",224 nM
13,"CC(=O)N1CCC[C@]12CC=CCCCC1(CCCC=CCCCOC(=O)N3CC[C@@](C(=O)N[C@@H](Cc4ccsc4)C(=O)N[C@@H](Cc4csc5ccccc45)C(=O)N[C@@H](CCC(N)=O)C(N)=O)(C3)NC(=O)[C@H](CC(N)=O)NC(=O)[C@H](Cc3cccc(Cl)c3)NC(=O)[C@H](C)NC(=O)[C@H](C)NC(=O)[C@H]([C@@H](C)O)NC(=O)[C@H](CC(N)=O)NC1=O)NC(=O)[C@H](CC(C)(C)C)NC(=O)[C@H](CC(=O)O)NC2=O (stereo partly drawn) [I-2014, Ac-PL3-Asp-Npg-B5-Asn-Thr-Ala-Ala-3C1F-Asn-PyrS2-3Thi-BztA-Gln-NH2]",1180 nM

# Reference: patent US20240116985A1, “STAPLED PEPTIDES AND METHODS THEREOF” (priority 2020, published 2024)
